Measured values published in patent US9314472B2, “Treatment and prevention of mastitis” (BRIGHAM YOUNG UNIVERSITY, priority 2012, dated 2016).
Structures can show the parent of a compound that is named as a salt.

How the values were obtained:
[1] = system: combined gram positive and gram negative bacteria; test: CSA-44/saline formulation study, intramammary treatment of clinical mastitis, all cases; assay type: in vivo, lactating dairy cattle; conditions: for cure rate for all mastitis cases: CSA-44 120 mg three times or cephapirin sodium 200 mg two times, intramammary, 24-hour interval, cured = no clinical signs, visibly normal milk, negative milk culture 11 days post-treatment; for % Cure / Cure (number) / Not Cure (number): combined gram positive and gram negative, CSA-44 120 mg x3 or cephapirin sodium 200 mg x2 intramammary, 11 days post-treatment
Procedure: (§1) A second dose characterization study was conducted using a non-final (saline) formulation of CSA-44 hydrochloride. The study enabled the selection of a dose to be used in the dose confirmation (field) study, which was conducted using the saline formulation of CSA-44 hydrochloride.
(§2) The objective of this study was to evaluate the effectiveness of intramammary administered CSA-44, as a saline based formulation, for the treatment of clinical mastitis in lactating dairy cows.
(§3) The objective was to evaluate the effectiveness of intramammary infusion of CSA-44 hydrochloride sterile suspension three times at a 24-hour interval at 120.0 mg dosage in the affected quarter in comparison to a negative control or 200 mg of cephapirin sodium activity in a stable peanut oil gel for the treatment of clinical mastitis in lactating dairy cattle.
(§4) A total of 151 cows from 2 herds were enrolled. Cows were enrolled in the study when they had visually abnormal milk (clots, flakes, or watery secretion) or if udder swelling, heat, pain or redness were present and milk was not yet visually abnormal, but the California Mastitis Test (CMT) gave results of 2 or greater. A pre-treatment milk sample was obtained from each affected quarter(s) and cultured for the presence of organisms associated with mastitis; the culture data were not available prior to treatment assignments.
(§5) Cows were assigned in blocks of three to receive either 120 mg CSA-44 HCl, 200 mg cephapirin sodium, or no treatment. Enrollment was restricted to cows with one quarter affected with clinical mastitis.
(§6) CSA-44 (120 mg) or cephapirin sodium (200 mg) was administered as an intramammary infusion three times or two times, respectively, at a 24-hour interval beginning on the day of enrollment (Day 0). Cows assigned to the control group were left untreated. […]. Cows in their second or greater lactation, with an elevated somatic cell count (SCC) and either a positive milk culture for a mastitis pathogen or signs of clinical mastitis were assigned to one of three treatment groups. A quarter was considered cured if there were no clinical signs of mastitis, visibly normal milk, and a negative milk culture 11 days post-treatment. Using these criteria, cure rates for all mastitis cases were 28.0% (Control-0 mg), 63.0% (cephapirin sodium, 200 mg), and 75.0% (CSA-44, 120 mg).
Test data for combined gram positive and gram negative bacteria are set forth in Table 3 below and graphically illustrated in FIG. 2C.

gram positive bacteria = test: CSA-44/saline formulation study, intramammary treatment of clinical mastitis, gram positive; assay type: in vivo, lactating dairy cattle; conditions: CSA-44 120 mg x3 or cephapirin sodium 200 mg x2 intramammary, 11 days post-treatment
Procedure: as §1, §2, §3, §4, §5, §6
Test data for gram positive bacteria are set forth in Table 1 below and graphically illustrated in FIG. 2A.

gram negative bacteria = test: CSA-44/saline formulation study, intramammary treatment of clinical mastitis, gram negative; assay type: in vivo, lactating dairy cattle; conditions: CSA-44 120 mg x3 or cephapirin sodium 200 mg x2 intramammary, 11 days post-treatment
Procedure: as §1, §2, §3, §4, §5, §6
Test data for gram negative bacteria are set forth in Table 2 below and graphically illustrated in FIG. 2B.

[2] = system: coagulase-negative staphylococci, Streptococcus dysgalactae, and Eshcherica coli; conditions: from Freedom Of Information Summary NADA 141-238, sterile suspension of ceftiofur hydrochloride; cited from earlier work
Escherichia coli = test: Dose characterization study, CSA-44/propylene glycol formulation, intramammary treatment of clinical mastitis; assay type: in vivo, lactating dairy cows; conditions: 60 mg CSA-44 per quarter, infused eight to ten times at 12-hour interval; cured = no clinical signs 10 days post-treatment, milk visibly normal, SCC < 350,000 cells
Procedure: (§7) A first dose characterization study was conducted using CSA-44 hydrochloride with and without propylene glycol based in the formulation. This study enabled the selection of a dose to be used in a dose confirmation (field) study, which was conducted using two propylene glycol formulations and 60 mg of CSA-44 hydrochloride per 10 ml syringe.
(§8) The objective of this study was to evaluate the effectiveness of intramammary administered CSA-44, with and without propylene glycol as part of the formulation, for the treatment of clinical mastitis in lactating dairy cows.
(§9) A total of 42 cow quarters from Blue Star Dairy (BSD) were enrolled. Cows in their second or greater lactation, with an elevated somatic cell count (SCC) and either a positive milk culture for a mastitis pathogen or signs of clinical mastitis were assigned to one of two treatment groups: 1) ceftiofur hydrochloride administered 2-7 times, per label directions; and 2) 60 mg of CSA-44 per quarter, cows were infused eight to ten times at a 12-hour interval. A quarter was considered cured if there were no clinical signs of mastitis 10 days post-treatment, milk was visibly normal, and somatic cell count (SCC) was less than 350,000 cells. Using these criteria, cure rates for Group CSA treated cows were 87% for Staph. spp. (CNS and Staph. aureus), 90% for Escherichia coli, and 78% for Strep spp. (Streptococcus dysgalactiae, Strep. uberis, and Streptococcus sp).

[3] = system: Staph. spp. (CNS and Staph. aureus); test: as above; assay type: in vivo, lactating dairy cows; conditions: 60 mg CSA-44 per quarter, infused eight to ten times at 12-hour interval; cured = no clinical signs 10 days post-treatment, milk visibly normal, SCC < 350,000 cells
Procedure: as §7, §8, §9

[4] = system: Strep spp. (Streptococcus dysgalactiae, Strep. uberis, and Streptococcus sp); test: as above; assay type: in vivo, lactating dairy cows; conditions: 60 mg CSA-44 per quarter, infused eight to ten times at 12-hour interval; cured = no clinical signs 10 days post-treatment, milk visibly normal, SCC < 350,000 cells
Procedure: as §7, §8, §9

[5] = Animal safety: udder irritation after intramammary infusion of CSA-44 sterile saline suspension; assay type: in vivo, lactating female Holstein dairy cattle; conditions: 120 mg
Procedure: The purpose of this example was to study the effects on dairy cows relative to udder irritation of intramammary infusion of a sterile formulation of CSA-44 containing either […] of CSA-44 per 10 mL plastet into both front quarters. More particularly, the study evaluated the safety of intramammary infusion of 120 mg, 150 mg and 200 mg CSA-44 hydrochloride sterile saline (0.9% NaCl) suspension, respectively, in each of two front quarters daily for three consecutive days with an approximate 24-hour interval between infusions.
Three lactating female Holstein dairy cattle ranging from 2 to 5 years of age and representing low milk producers (13.2 kg to 24.0 kg/day) and high milk producers (25.0 kg to 31.9 kg/day) were used in the study. Cows were enrolled based on the absence of mastitis pathogens, absence of clinical mastitis (normal strip cup and udder palpation), a somatic cell count (SCC) less than or equal to 200,000 per mL, and no edema or teat lesions.
Within each of the lactation/production subgroups (1st lactation high producers, 1st lactation low producers, ≧2nd lactation high producers, or ≧2nd lactation low producers), cows were assigned to receive either three doses of CSA-44 by intramammary infusion. There were no non-treated controls.
Following a 3-day pre-treatment clinical observation and milk sample collection period, animals received their assigned treatment. Measurements and observations continued during the treatment period and through Day 3 (60 hours) post treatment.
A CSA-44 sterile saline suspension (120 mg, 150 mg, or 200 mg) was administered as an intramammary infusion into both front quarters once at a 24-hour interval for three consecutive days. The following clinical and production measures were evaluated for a total of either 14 milkings: appearance of foremilk (strip cup evaluation), physical condition of udder, milk production, and general health.

[6] = Human food safety: total residue study of CSA-44 in bovine milk by HPLC with MS detection; assay type: in vivo, lactating Holstein cows; conditions: predicted; intramammary 120, 150 or 200 mg daily for three days
From the text: The objective of this study was to validate a method for the determination of CSA-44 in bovine milk by HPLC with MS detection. The protocol has been designed to fulfill the requirements outlined in the FDA/CVM Guidance for Industry #208^1. ^1Guidance for Industry #208: Studies to Evaluate the Metabolism and Residue Kinetics of Veterinary Drugs in Food-Producing Animals: Validation of Analytical Methods used in Residue Depletion Studies. VICH GL49. U.S. Department of Health and Human Services, Food and Drug Administration, Center for Veterinary Medicine. Sep. 15, 2011
A GLP-compliant total residue study was conducted in 3 healthy, lactating Holstein cows. Cows tested were in the middle of their 2nd or 3rd lactation. The more specific objective was to evaluate the safety of intramammary infusion of 120, 150 and 200 mg dosages of CSA-44 hydrochloride sterile saline (0.9% NaCl) suspension, respectively, in each of two front quarters daily for three consecutive days with an approximate 24-hour interval between infusions.
Three lactating female Holstein dairy cattle ranging from 2 to 5 years of age and representing low milk producers (13.2 kg to 24.0 kg/day) and high milk producers (25.0 kg to 31.9 kg/day) were used in the study. […]

[7] = 150 mg or 200 mg in sterile saline, intramammary into both front quarters, once daily for three consecutive days

SMILES | cure rate for all mastitis cases [1] [%] | % Cure [1] [%] | Cure (number) [1] | Not Cure (number) [1] | % Cure (gram positive bacteria) [%] | Cure (number) (gram positive bacteria) | Not Cure (number) (gram positive bacteria) | % Cure (gram negative bacteria) [%] | Cure (number) (gram negative bacteria) | Not Cure (number) (gram negative bacteria) | further results
CC(=O)OCC1=C(C(=O)O)N2C(=O)[C@@H](NC(=O)CSc3ccncc3)[C@H]2SC1 [Cephapirin Sodium, cephapirin sodium, reference compound] | 63.0 | 62 | 32 | 20 | 62 | 21 | 13 | 61 | 11 | 7 | –
CO/N=C(\C(=O)N[C@@H]1C(=O)N2C(C(=O)O)=C(CSC(=O)c3ccco3)CS[C@H]12)c1csc(N)n1 [Ceftiofur HCl, ceftiofur hydrochloride] | – | – | – | – | – | – | – | – | – | – | % Cure [2]: 70%; Cure (number) [2]: 38; Not Cure (number) [2]: 16
CCCCCCCCOC(=O)CC[C@@H](C)[C@H]1CC[C@H]2[C@@H]3[C@H](OC(=O)CCN)C[C@@H]4C[C@H](OC(=O)CCN)CC[C@]4(C)[C@H]3C[C@H](OC(=O)CCN)[C@]12C [CSA-44] | 75.0 | 75 | 45 | 15 | 70 | 29 | 12 | 84 | 16 | 3 | cure rate (Escherichia coli): 90%; cure rate [3]: 87%; cure rate [4]: 78%; milk quality appearance and strip cup response during treatment [5, 7]: no change in milk quality; udder physical condition scores, strip cup analyses, milk production (milk weight and percent milk fat) in response to treatment [5, 7]: no overall differences; clinical safety and irritation of mammary tissue ([5]; sterile saline formulation, 150 mg or 200 mg per 10 mL dose, infused once daily for up to three consecutive days): clinically safe and not irritating to the mammary tissue; time until CSA-44 is undetectable in milk [6]: 60 to 72 h; time until residues in the milk are substantially depleted [6]: 24 to 48 h
